Key:
[1] = biological target: S. cerevisiae native Ste2 receptor (Saccharomyces cerevisiae, UniProt D6VTK4); test: Fungal GPCR activation in S. cerevisiae sensor strain, fluorescent reporter; assay type: cell-based; settings: non-cognate peptide
[2] = test system: C. albicans mating receptor (Ca.Ste2) biosensor; test: Paper-based dipstick assay, lycopene readout, C. albicans biosensor; assay type: cell-based, Candida albicans; settings: 1 μM peptide
M. oryzea mating GPCR = assay type: cell-based, Magnaporthe oryzea
B. cinerea mating GPCR = assay type: cell-based, Botrytis cinerea; settings: cognate synthetic peptide pheromone, fluorescent readout
[3] = test system: P. brasiliensis mating receptor (Pb.Ste2) biosensor; assay type: cell-based, Paracoccidioides brasiliensis
[4] = test system: F. graminearum mating GPCR; assay type: cell-based, Fusarium graminearum
endogenous GPCR Ste2 = endogenous GPCR Ste2 (Saccharomyces cerevisiae, UniProt D6VTK4); assay type: cell-based, S. cerevisiae; settings: v1.0 lycopene reporter strain
[5] = test system: C. albicans mating GPCR (Ca.Ste2); assay type: cell-based, Candida albicans; settings: non-cognate peptide
[6] = test system: L. elongisporous mating GPCR; assay type: cell-based; settings: cognate synthetic peptide pheromone, fluorescent readout

Sequence of S. cerevisiae native Ste2 receptor (D6VTK4 whole entry): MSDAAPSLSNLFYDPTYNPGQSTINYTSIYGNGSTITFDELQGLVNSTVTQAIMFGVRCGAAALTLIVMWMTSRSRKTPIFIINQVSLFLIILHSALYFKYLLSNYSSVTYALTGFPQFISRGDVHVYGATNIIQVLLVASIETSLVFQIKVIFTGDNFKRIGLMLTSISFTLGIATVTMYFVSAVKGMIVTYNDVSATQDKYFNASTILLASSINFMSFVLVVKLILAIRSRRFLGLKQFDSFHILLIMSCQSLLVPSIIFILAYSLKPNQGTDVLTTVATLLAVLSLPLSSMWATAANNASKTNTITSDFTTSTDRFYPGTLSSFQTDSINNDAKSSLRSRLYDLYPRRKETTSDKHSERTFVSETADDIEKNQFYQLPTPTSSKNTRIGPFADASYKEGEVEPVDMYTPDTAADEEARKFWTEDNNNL
Sequence of endogenous GPCR Ste2 (D6VTK4 whole entry): as above

Sequence: GFRLTNFGYFEPG [GFRLTNFGYFEPG (SEQ ID NO: 5)]
- response of S. cerevisiae native Ste2 receptor to non-cognate pheromone [1]: not
- time to maximal response in dipstick assay [2]: ≤ 12 h
- response of C. glabrata receptor to the other species pheromone (C. glabrata mating GPCR; non-cognate peptide): did not respond

Sequence: QWCPRRGQPCW [QWCPRRGQPCW (SEQ ID NO: 17)]
- EC50 (M. oryzea mating GPCR): 5000 nM

Sequence: WCGRPGQPC [WCGRPGQPC (SEQ ID NO: 20)]
- EC50 (B. cinerea mating GPCR): < 1 nM

Sequence: WCTRPGQGC [WCTRPGQGC (SEQ ID NO: 11)]
- time to maximal response in dipstick assay [3]: ≤ 12 h

Sequence: WCWWKGQPCW [WCWWKGQPCW (SEQ ID NO: 14)]
- EC50 [4]: 230 nM

Sequence: WHWLQLKPGQPMY [WHWLQLKPGQPMY (SEQ ID NO: 24)]
- time until reporter strain became visibly orange after exposure (endogenous GPCR Ste2): 36 h

Sequence: WHWVRLRKGQGLF [WHWVRLRKGQGLF (SEQ ID NO: 8)]
- response of C. albicans receptor to the other species pheromone [5]: did not respond
- response of S. cerevisiae native Ste2 receptor to non-cognate pheromone [1]: responded
- EC50 (C. glabrata mating GPCR; cognate synthetic peptide pheromone, biosensor settings): 3600 nM

Sequence: WMWTRYGRFSPV [WMWTRYGRFSPV (SEQ ID NO: 34)]
- EC50 [6]: 51 nM

— patent US11899014B2, “Detection of analytes using live cells” (THE TRUSTEES OF COLUMBIA UNIVERSITY IN THE CITY OF NEW YORK, priority 2014, dated 2024)
